Structures are written as SMILES.

Experiment [1] deals with P. berghei (ANKA GFP-luc) blood stage parasites. In words: Single dose in vivo efficacy, P. berghei blood stage, bioluminescence imaging. Set-up: species or system CD-1 mice. The procedure: CD-1 mice (female, 6-7-week-old) were inoculated with 1×10^6 P. berghei (ANKA GFP-luc) blood stage parasites intravenously 24 hours before treatment and compounds were administered as a single 100 or 50 mg/kg dose orally at 0 hour. Parasitemia was monitored by the In vivo Imaging System (IVIS 100, Xenogen; Caliper Life Science) to acquire the bioluminescence signal. Animals with parasitemia exceeding 25% were euthanized.
Infection proceeds rapidly in untreated mice (control), which were euthanized around day 6 of the study. Compound 37 and 68 were tested at different times; thus the artesunate control (ART) is shown for each compound. […] All images are normalized to the same color scale.

Experiment [2] concerns P. falciparum Dd2. Kind of experiment: Activity against the Dd2 strain of P. falciparum (SYBR Green I, 72 h). Type of experiment: cell-based. The note with it: Plasmodium falciparum, DD2, 72 h, P. falciparum Dd2, 72 h incubation. The essentials:
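Parasites in human RBCs at 1% parasitemia and 1.0% hematocrit, exposed to compounds (0.125% DMSO) for 72 h at 37°C under 93% N2/4% CO2/3% O2. SYBR Green I in saponin/Triton lysis buffer added, 24 h staining, fluorescence read at 485/530 nm. EC50 derived against 20 μM mefloquine background and DMSO baseline.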

Experiment [3] relates to P. berghei strain ANKA. Kind of experiment: In vivo antimalarial activity, mice infected with P. berghei strain ANKA, three daily oral doses. Set-up: species or system NMVRI mice. To be noted: 50 mg/kg orally, three consecutive daily doses (24, 48, 72 h after infection), day 4, relative to control group. The procedure: In vivo antimalarial activity for certain compounds of the invention was assessed for groups of three-five female NMVRI mice ([…]) intravenously infected on day 0 with P. berghei strain ANKA (2×10^7 parasitized erythrocytes per ml). In control mice, parasitemia typically rose to ˜40% by day 3 after infection, and control mice died between day 5 and day 7 after infection. Compounds with a dosage of 50 mg/kg were formulated in 7% Tween80/3% ethanol and were administered orally as three consecutive daily doses (24, 48, and 72 h after infection). The blood smears were collected and stained on day 4 after infection. The degree of infection (parasitemia expressed as percent infected erythrocytes) was determined microscopically, with a detection limit of 1 parasite in 10,000 erythrocytes (that is, 0.01%). Activity was calculated as the difference between the mean percent parasitemia for the control and treated groups expressed as a percent relative to the control group. Using this method, a compound of the invention (8R,9R,10S)-10-(hydroxymethyl)-N-(4-methoxyphenyl)-9-(4-(phenylethynyl)phenyl)-1,6-diazabicyclo[6.2.0]decane-6-carboxamide (compound 27) reduced parasitaemia by 57% on day 4. […] Quantification was conducted by comparison to a calibration curve prepared using blank plasma and processed in the same way as the samples.

Experiment [4] concerns P. berghei (ANKA GFP-luc). In words: Prevention of transmission of P. berghei to mosquitoes (oocyst count in midguts). Type of experiment: in vivo, CD-1 mice / Anopheles stephensi mosquitoes. The note with it: single ascending doses (all doses), mosquitoes fed Day 2, midguts dissected Day 9. How it is done: CD-1 mice were infected with P. berghei (ANKA GFP-luc) for 96 hours prior to treatment with vehicle [70% PEG400 and 30% (5% glucose in H2O)] or single ascending doses of compound 37 (Day 0). Average % parasitemia on Day 0 was 2.1%. On Day 2 of the study, mice were anesthetized and female Anopheles stephensi mosquitoes were allowed to feed on the mice for 20 minutes. On Day 9, the midguts of the mosquitoes were dissected out, and oocysts were enumerated microscopically (12.5× magnification, oocysts visible as puncta in the control, FIG. 2, Panel A).

Experiment [5] has as its system P. berghei (ANKA luc-GFP) sporozoites. Kind of experiment: In vivo P. berghei liver stage assay. Also on record: species or system CD-1 mice. To be noted: single PO dose. How it is done: CD-1 mice were inoculated (IV) with 1×10^5 P. berghei (ANKA luc-GFP) sporozoites freshly dissected out from A. stephensi and immediately treated with a single dose (PO) of vehicle or compound 37 (25, 5.0, 1.0 or 0.2 mg/kg) at 0 hour. Bioluminescence signals from the transgenic parasites were monitored by the In vivo Imaging System (IVIS 100, Xenogen; Caliper Life Science).
The ED50 for compound 37 in this assay was 1 mg/kg.

The mark [6] stands for this setting: single oral dose, P. berghei blood stage.

`C[C@H]1[C@H](OC(=O)CCC(=O)O)O[C@@H]2O[C@@]3(C)CC[C@H]4[C@H](C)CC[C@@H]1[C@@]24OO3` [ART, artesunate, reference compound]: the “effect on parasites” value in experiment [1] (single 100 mg/kg dose) is reported as “rapid suppression of parasites, but, due to its short half-life, the parasites re-emerge quickly”.
Consider `COc1ccc(NC(=O)N2CCCCN3[C@H](CO)[C@H](c4ccc(C#Cc5ccccc5)cc4)[C@@H]3C2)cc1` [Compound 27, (8R,9R,10S)-10-(hydroxymethyl)-N-(4-methoxyphenyl)-9-(4-(phenylethynyl)phenyl)-1,6-diazabicyclo[6.2.0] decane-6-carboxamide], for which, in experiment [2], a half-maximal response (EC50) required 4 nM. The same compound returned a reduction of parasitaemia in experiment [3] of 57%.
Consider `COc1ccc(NC(=O)N2CCCCN3[C@H](CN)[C@H](c4ccc(C#Cc5ccccc5)cc4)[C@@H]3C2)cc1` [Compound 37, (8R,9S,10S)-10-(aminomethyl)-N-(4-methoxyphenyl)-9-[4-(2-phenylethynyl)phenyl]-1,6-diazabicyclo[6.2.0] decane-6-carboxamide], for which, in experiment [4], the “oocysts in mosquito midguts” value is “no detectable oocysts”. For the same compound, the EC50 (as a rule, the concentration at which the effect is half-maximal) in experiment [2] came out at 148 nM. Further, the time parasitemia repressed result in experiment [1] (single 100 mg/kg oral dose) is given as “about 1 week”. Moreover, the ED25 in experiment [1] (setting [6]) is recorded as 100 mg/kg. In addition, the ED50 (usually the dose that gives a 50% effect, or the effect in half of the subjects) in experiment [5] (Plasmodium berghei, in Mus musculus, liver stage) was found to be 1 mg/kg. For the same compound, the “parasitemia after sporozoite inoculation” value in experiment [5] (dosed at ≥5 mg/kg) is “remained parasite free”.
Consider `COc1ccc(NC(=O)N2CCCCN3[C@H](CN(C)C)[C@H](c4ccc(C#Cc5ccccc5)cc4)[C@@H]3C2)cc1` [Compound 68, (8R,9S,10S)-10-[(dimethylamino)methyl]-N-(4-methoxyphenyl)-9-[4-(2-phenylethynyl)phenyl]-1,6-diazabicyclo[6.2.0] decane-6-carboxamide], for which the EC50 in experiment [2] worked out at 3 nM. The “cure of the infected animals” value in experiment [1] (single 50 mg/kg oral dose) came to 100%. In experiment [1] (setting [6]), this compound showed an ED100 of at most 50 mg/kg.
As to `COc1ccc(NC(=O)N2CCCCN3[C@@H](CNC(C)=O)[C@H](c4ccc(C#Cc5ccccc5)cc4)[C@@H]3C2)cc1` [Compound 82, (8R,9S,10R)-10-(acetamidomethyl)-N-(4-methoxyphenyl)-9-(4-(phenylethynyl)phenyl)-1,6-diazabicyclo[6.2.0] decane-6-carboxamide], the EC50 in experiment [2] came to 3 nM.
Still for that read-out and setting: the figure for `O=C(Nc1ccc(OCCN2CCOCC2)cc1)N1CCCCN2[C@H](CO)[C@H](c3ccc(C#Cc4ccccc4)cc3)[C@@H]2C1` [Compound 83, (8R,9R,10S)-10-(hydroxymethyl)-N-(4-(2-morpholinoethoxy)phenyl)-9-(4-(phenylethynyl)phenyl)-1,6-diazabicyclo[6.2.0] decane-6-carboxamide] is 24 nM; for `COc1ccc(NC(=O)N2CCCCN3[C@@H](CN4CCOCC4)[C@H](c4ccc(C#Cc5ccccc5)cc4)[C@@H]3C2)cc1` [Compound 84, (8R,9S,10R)-N-(4-methoxyphenyl)-10-(morpholinomethyl)-9-(4-(phenylethynyl)phenyl)-1,6-diazabicyclo[6.2.0] decane-6-carboxamide] it is 52 nM; for `COc1ccc(NC(=O)N2CCCCN3[C@@H](COCC(=O)O)[C@H](c4ccc(C#Cc5ccccc5)cc4)[C@@H]3C2)cc1` [Compound 85, 2-(((8R,9R,10R)-6-((4-methoxyphenyl)carbamoyl)-9-(4-(phenylethynyl)phenyl)-1,6-diazabicyclo[6.2.0]decan-10-yl)methoxy)acetic acid] it is 0.4 nM.
The same measure, in the same setting: the figure for `COc1ccc(NC(=O)N2CCCCN3[C@@H](COCCC(=O)O)[C@H](c4ccc(C#Cc5ccccc5)cc4)[C@@H]3C2)cc1` [Compound 86, 3-(((8R,9R,10R)-6-((4-methoxyphenyl)carbamoyl)-9-(4-(phenylethynyl)phenyl)-1,6-diazabicyclo[6.2.0]decan-10-yl)methoxy)propanoic acid] is 2 nM; for `COC(=O)CCOC[C@@H]1[C@H](c2ccc(C#Cc3ccccc3)cc2)[C@@H]2CN(C(=O)Nc3ccc(OC)cc3)CCCCN12` [Compound 87, methyl 3-(((8R,9R,10S)-6-((4-methoxyphenyl)carbamoyl)-9-(4-(phenylethynyl)phenyl)-1,6-diazabicyclo[6.2.0]decan-10-yl)methoxy)propanoate] it is 1 nM; for `CNC[C@H]1[C@H](c2ccc(C#Cc3ccccc3)cc2)[C@@H]2CN(C(=O)Nc3ccc(OC)cc3)CCCCN12` [Compound 88, (8R,9S,10R)-N-(4-methoxyphenyl)-10-((methylamino)methyl)-9-(4-(phenylethynyl)phenyl)-1,6-diazabicyclo[6.2.0] decane-6-carboxamide] it is 25 nM.
Still for that read-out and setting: next, `COc1ccc(NC(=O)N2CCCCN3[C@H](COCCC(=O)N4CCOCC4)[C@H](c4ccc(C#Cc5ccccc5)cc4)[C@@H]3C2)cc1` [Compound 89, (8R,9R,10S)-N-(4-methoxyphenyl)-10-((3-morpholino-3-oxopropoxy)methyl)-9-(4-(phenylethynyl)phenyl)-1,6-diazabicyclo[6.2.0] decane-6-carboxamide]: 8 nM; `COc1ccc(NC(=O)N2CCCCN3[C@H](CNCC(F)(F)F)[C@H](c4ccc(C#Cc5ccccc5)cc4)[C@@H]3C2)cc1` [Compound 90, (8R,9S,10S)-N-(4-methoxyphenyl)-9-(4-(phenylethynyl)phenyl)-10-(((2,2,2-trifluoroethyl)amino)methyl)-1,6-diazabicyclo[6.2.0] decane-6-carboxamide]: 228 nM.
In the case of `COc1ccc(NC(=O)N2CCCCN3[C@@H](COCCC(=O)N4CCOCC4)[C@H](c4ccc(C#Cc5ccccc5)cc4)[C@@H]3C2)cc1` [Compound 91, (8R,9R,10R)-N-(4-methoxyphenyl)-10-((3-morpholino-3-oxopropoxy)methyl)-9-(4-(phenylethynyl)phenyl)-1,6-diazabicyclo[6.2.0] decane-6-carboxamide], in experiment [2], the EC50 turned out to be 14 nM.
On the same count and under the same terms, next, `COc1ccc(NC(=O)N2CCCCN3[C@@H](CN(C)C)[C@H](c4ccc(C#Cc5ccccc5)cc4)[C@@H]3C2)cc1` [Compound 92, (8R,95S,10R)-10-((dimethylamino)methyl)-N-(4-methoxyphenyl)-9-(4-(phenylethynyl)phenyl)-1,6-diazabicyclo[6.2.0] decane-6-carboxamide]: 108 nM; `N#Cc1ccc(NC(=O)N2CCCCN3[C@H](CO)[C@H](c4ccc(C#Cc5ccccc5)cc4)[C@@H]3C2)cc1` [Compound 93, (8R,9R,10S)-N-(4-cyanophenyl)-10-(hydroxymethyl)-9-(4-(phenylethynyl)phenyl)-1,6-diazabicyclo[6.2.0] decane-6-carboxamide]: 138 nM; `CCN(CC)C[C@@H]1[C@H](c2ccc(C#Cc3ccccc3)cc2)[C@@H]2CN(C(=O)Nc3ccc(OC)cc3)CCCCN12` [Compound 94, (8R,9S,10S)-10-((diethylamino)methyl)-N-(4-methoxyphenyl)-9-(4-(phenylethynyl)phenyl)-1,6-diazabicyclo[6.2.0] decane-6-carboxamide]: 14 nM.
Still for that read-out and setting: the figure for `COc1ccc(NC(=O)N(C)C[C@H]2[C@@H](c3ccc(C#Cc4ccccc4)cc3)[C@@H](CO)N2C)cc1` [Compound 95, 1-(((2R,3R,4S)-4-(hydroxymethyl)-1-methyl-3-(4-(phenylethynyl)phenyl)azetidin-2-yl)methyl)-3-(4-methoxyphenyl)-1-methylurea] is 5000 nM.

The record behind these values is patent US11325913B2, “Compounds and methods for the treatment of malaria” (THE BROAD INSTITUTE, INC., priority 2013, dated 2022).
